In patent US9783536B2, “Nitrogen-containing heterocyclic compound or salt thereof” (FUJIFILM Corporation, priority 2013, dated 2017):
pIC50: −log10 of the molar value. Read-outs that look alike come from different tables or passages of the source.

Columns and labels:
[1] = target: T1, human PI3Kα protein (Homo sapiens, UniProt P42336); experiment: PI3Kα enzyme assay (ADP-Glo); assay type: biochemical; settings: read-out: PI3Kα enzyme inhibitory activity
T1 construct: purchased Carna Biosciences, Inc; host or cells: baculovirus expression system
T1 sequence (P42336 whole entry): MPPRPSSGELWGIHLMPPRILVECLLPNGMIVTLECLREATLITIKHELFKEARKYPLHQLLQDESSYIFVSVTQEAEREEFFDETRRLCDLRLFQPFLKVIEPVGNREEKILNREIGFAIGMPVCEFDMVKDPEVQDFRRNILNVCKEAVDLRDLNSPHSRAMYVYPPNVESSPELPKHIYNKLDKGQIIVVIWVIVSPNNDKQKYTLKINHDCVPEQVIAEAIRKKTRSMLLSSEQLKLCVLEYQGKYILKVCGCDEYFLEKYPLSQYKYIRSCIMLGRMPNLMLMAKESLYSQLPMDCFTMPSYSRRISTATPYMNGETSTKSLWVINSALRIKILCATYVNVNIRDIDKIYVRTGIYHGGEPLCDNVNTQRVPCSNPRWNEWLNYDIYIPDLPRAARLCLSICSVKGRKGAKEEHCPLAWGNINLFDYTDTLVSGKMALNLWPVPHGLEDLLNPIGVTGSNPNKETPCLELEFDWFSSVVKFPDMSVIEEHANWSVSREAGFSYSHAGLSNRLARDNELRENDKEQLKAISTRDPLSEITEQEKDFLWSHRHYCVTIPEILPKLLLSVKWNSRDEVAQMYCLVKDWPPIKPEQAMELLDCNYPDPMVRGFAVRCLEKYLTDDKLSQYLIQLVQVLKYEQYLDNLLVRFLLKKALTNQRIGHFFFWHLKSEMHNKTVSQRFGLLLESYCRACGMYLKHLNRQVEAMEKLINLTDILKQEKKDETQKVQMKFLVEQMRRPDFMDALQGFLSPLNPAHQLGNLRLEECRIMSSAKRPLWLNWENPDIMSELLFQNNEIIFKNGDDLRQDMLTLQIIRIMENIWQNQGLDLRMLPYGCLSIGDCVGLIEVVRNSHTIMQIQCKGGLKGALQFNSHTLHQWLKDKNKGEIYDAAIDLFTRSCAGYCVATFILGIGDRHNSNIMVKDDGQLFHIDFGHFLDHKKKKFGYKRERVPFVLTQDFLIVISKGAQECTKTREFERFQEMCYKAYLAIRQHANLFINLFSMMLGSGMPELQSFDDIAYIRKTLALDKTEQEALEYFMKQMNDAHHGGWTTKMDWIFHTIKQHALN
T1 sequence (P27986 whole entry partner): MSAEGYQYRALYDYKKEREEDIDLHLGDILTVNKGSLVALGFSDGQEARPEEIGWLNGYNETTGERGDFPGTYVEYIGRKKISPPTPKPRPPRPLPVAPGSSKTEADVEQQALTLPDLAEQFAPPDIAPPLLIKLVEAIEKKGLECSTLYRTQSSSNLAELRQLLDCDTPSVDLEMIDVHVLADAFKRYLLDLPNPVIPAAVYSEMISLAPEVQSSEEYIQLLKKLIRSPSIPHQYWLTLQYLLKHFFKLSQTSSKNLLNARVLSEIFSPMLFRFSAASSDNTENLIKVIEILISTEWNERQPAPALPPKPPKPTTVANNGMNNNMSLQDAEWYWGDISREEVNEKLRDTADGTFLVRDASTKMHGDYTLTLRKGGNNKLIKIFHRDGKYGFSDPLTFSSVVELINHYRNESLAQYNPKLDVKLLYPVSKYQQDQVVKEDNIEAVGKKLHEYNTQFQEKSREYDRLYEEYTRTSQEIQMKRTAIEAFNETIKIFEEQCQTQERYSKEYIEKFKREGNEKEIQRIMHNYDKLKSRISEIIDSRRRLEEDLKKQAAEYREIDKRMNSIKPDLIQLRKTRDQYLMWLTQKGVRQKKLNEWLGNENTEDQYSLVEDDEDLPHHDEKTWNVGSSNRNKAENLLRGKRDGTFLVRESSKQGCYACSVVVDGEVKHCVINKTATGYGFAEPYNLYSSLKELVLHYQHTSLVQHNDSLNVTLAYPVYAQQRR
Experimental: In a PI3Kα enzyme assay, a product (manufactured by Carna Biosciences, Inc.) obtained by biotinylating a human PI3Kα protein produced by using a baculovirus expression system was used. In addition, in the detection of enzyme activity, ADP-GLO KINASE ASSAY (trade name, manufactured by PROMEGA Corporation) was used.
10 μL of a reaction liquid (4.5 nmol/L PI3Kα, 40 mmol/L Tris-HCl, 20 mmol/L MgCl2, 0.1% BSA, pH 7.5) including the human PI3Kα protein and a test compound having a predetermined concentration was allowed to stand at room temperature for 15 minutes. Then, 5 μL of a mixture liquid of L-α-phosphatidylinositol 4,5-diphosphate (PIP2) (manufactured by Sigma-Aldrich Co. LLC.) and ATP (manufactured by Sigma-Aldrich Co. LLC.), which are substrates, was added thereto such that final concentrations thereof became 50 μmol/L and 100 μmol/L, respectively, and an enzyme reaction was performed by allowing to stand at 25° C. for 60 minutes.
After the reaction, the enzyme reaction was stopped by adding 15 μL of an ADP-GLO REAGENT (trade name, manufactured by PROMEGA Corporation) thereto and allowing to stand at room temperature for 60 minutes. Then, 30 μL of a KINASE DETECTION REAGENT (trade name, manufactured by PROMEGA Corporation) was added thereto, followed by allowing to stand at room temperature for 40 minutes, and ADP produced by the enzyme reaction was quantified by emission intensity.
ENVISION (trade name, manufactured by Perkin Elmer Inc.) was used for the measurement of the emission intensity.
(§1) The inhibitory activities of the compounds were evaluated using IC50 (50% inhibitory concentration). The IC50 was calculated using XLFIT (trade name, manufactured by ID Business Solutions).

[2] = target: T2, GST fusion human ERK2 protein (Homo sapiens, UniProt P28482); experiment: ERK2 enzyme assay (2); assay type: biochemical; settings: read-out: ERK2 enzyme inhibitory activity (2)
T2 construct: purchased Carna Biosciences, Inc; host or cells: E. coli expression system
T2 sequence (P28482 whole entry, the tested form may be a part): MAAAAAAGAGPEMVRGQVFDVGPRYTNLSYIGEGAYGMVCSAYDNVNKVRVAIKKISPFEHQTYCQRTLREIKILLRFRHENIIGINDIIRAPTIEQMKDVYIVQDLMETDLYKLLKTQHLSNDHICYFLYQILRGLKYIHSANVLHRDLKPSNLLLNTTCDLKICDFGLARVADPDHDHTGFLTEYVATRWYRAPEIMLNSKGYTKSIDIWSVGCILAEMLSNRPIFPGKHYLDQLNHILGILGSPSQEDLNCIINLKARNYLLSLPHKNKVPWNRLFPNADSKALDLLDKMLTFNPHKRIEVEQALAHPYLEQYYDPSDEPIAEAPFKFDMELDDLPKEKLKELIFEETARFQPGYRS
Experimental: In an ERK2 enzyme assay, GLUTATHIONE S-TRANSFERASE (GST) FUSION HUMAN ERK2 PROTEIN (manufactured by Carna Biosciences, Inc.), which was produced by using an E. coli expression system, was used.
12 μL of a reaction liquid (1.25 nmol/L ERK2, 100 mmol/L Hepes, 10 mmol/L MgCl2, 1.5 mmol/L DTT, 0.003% Brij35, pH 7.5) including ERK2 protein and a test compound having a predetermined concentration was allowed to stand at room temperature for 15 minutes. Then, 3 μL of a mixture liquid of FL-PEPTIDE8 (5-FAM-IPTSPITTTYFFFKKK-COOH) (manufactured by Caliper Life Sciences), which is substrate peptide, and ATP (manufactured by Sigma-Aldrich Co. LLC.) was added thereto such that the final concentrations thereof became 4.25 μmol/L and 1 mmol/L, respectively, and an enzyme reaction was performed by allowing to stand at 25° C. for 120 minutes.
After the reaction, the enzyme reaction was stopped by adding 30 μL of a reaction stopper liquid (100 mmol/L HEPES, 11.2 mmol/L EDTA, 5.6% Brij35, pH 7.5) including a 0.5% COATING REAGENT 8 (trade name, manufactured by Perkin Elmer Inc.) thereto. Then, phosphorylated peptide and non-phosphorylated peptide were separated using LABCHIP EZ READER (trade name, manufactured by Caliper Life Sciences), and the porportion of the phosphorylated peptide was quantified.
as §1

[3] = 4.5 nmol/L PI3Kα, PIP2 50 μmol/L, ATP 100 μmol/L

Row | SMILES | pIC50 [1] | pIC50 ([2]; ERK2 enzyme assay (2)) | pIC50 [2] | pIC50 [1, 3]
1 | CC(C)c1cnnc(Nc2ccc3ncc(-c4cncn4C)cc3n2)c1 [Example 0509, N-(5-isopropylpyridazin-3-yl)-7-(1-methyl-1H-imidazol-5-yl)-1,5-naphthyridine-2-amine] | 5.00 to 6.00 | > 6.00 | – | –
2 | CC(C)c1cnnc(Nc2ccc3ncc(-c4cnn(Cc5ccccc5[N+](=O)[O-])c4)cc3n2)c1 [Example 0703, N-(5-isopropylpyridazin-3-yl)-7-(1-(2-nitrobenzyl)-1H-pyrazol-4-yl)-1,5-naphthyridine-2-amine] | > 6.00 | > 6.00 | – | –
3 | CC(C)c1cnnc(Nc2ccc3ncc(-c4cn(C)nc4C4CCOCC4)cc3n2)c1 [Example 0772] | > 6.00 | > 6.00 | – | –
4 | CC(C)c1cnnc(Nc2ccc3ncc(N4CC(F)(F)C4)cc3n2)c1 [Example 0854] | > 6.00 | > 6.00 | – | –
5 | CC(C)c1cnnc(Nc2ccc3ncc(-c4cn(C)nc4N4CCCC4)cc3n2)c1 [Example 0937] | > 6.00 | – | > 6.00 | –
6 | CCOC(=O)c1csc(Nc2ccc3ncc(-c4cnn(C)c4)cc3n2)n1 [Example 0034, ethyl 2-((7-(1-methyl-1H-pyrazol-4-yl)-1,5-naphthyridin-2-yl)amino)thiazole-4-carboxylate] | – | – | – | 5.00 to 6.00
7 | CCN(CC)c1nn(C)cc1-c1cnc2ccc(Nc3cc(C(C)C)cnn3)nc2c1 [Example 0944] | > 6.00 | – | > 6.00 | –
8 | COc1ccc(-c2cnc3ccc(Nc4cc(C(C)C)cnn4)nc3c2)cn1 [Example 0590] | 5.00 to 6.00 | > 6.00 | – | –
9 | CC(C)c1cnnc(Nc2ccc3ncc(-c4cnn(C5CC5)c4)cc3n2)c1 [Example 0563, 7-(1-Cyclopropyl-1H-pyrazol-4-yl)-N-(5-isopropylpyridazin-3-yl)-1,5-naphthyridine-2-amine] | > 6.00 | > 6.00 | – | –
10 | COCCN(C)c1nn(C)cc1-c1cnc2ccc(Nc3cc(C(C)C)cnn3)nc2c1 [Example 0945] | > 6.00 | – | > 6.00 | –
11 | COCCN(CCOC)c1nn(C)cc1-c1cnc2ccc(Nc3cc(C(C)C)cnn3)nc2c1 [Example 0947] | 5.00 to 6.00 | – | 5.00 to 6.00 | –
12 | CC(C)c1cnnc(Nc2ccc3ncc(NC4CCCCC4)cc3n2)c1 [Example 0877] | > 6.00 | 5.00 to 6.00 | – | –
13 | CCC(CC)c1cnnc(Nc2ccc3ncc(-c4cnn(C)c4)cc3n2)c1 [Example 0585] | > 6.00 | > 6.00 | – | –
14 | CC(C)c1cnnc(Nc2ccc3ncc(N4CCC(CO)CC4)cc3n2)c1 [Example 0511, (1-(6-((5-Isopropylpyridazin-3-yl)amino)-1,5-naphthyridin-3-yl)piperidin-4-yl)methanol] | 5.00 to 6.00 | > 6.00 | – | –
15 | CC(C)c1cnnc(Nc2ccc3ncc(-c4cn(C)nc4COC4COC4)cc3n2)c1 [Example 0911, N-(5-isopropylpyridazin-3-yl)-7-(1-methyl-3-((oxetan-3-yloxy)methyl)-1H-pyrazol-4-yl)-1,5-naphthyridine-2-amine] | > 6.00 | – | > 6.00 | –
16 | COCC(COC)Cn1cc(-c2cnc3ccc(Nc4cc(C(C)C)cnn4)nc3c2)cn1 [Example 0484] | > 6.00 | > 6.00 | – | –
17 | CC(C)c1cnnc(Nc2ccc3ncc(-c4cn(C)nc4-c4ccnnc4)cc3n2)c1 [Example 0843, N-(5-isopropylpyridazin-3-yl)-7-(1-methyl-3-(pyridazin-4-yl)-1H-pyrazol-4-yl)-1,5-naphthyridine-2-amine] | > 6.00 | > 6.00 | – | –
18 | CC(C)c1cnnc(Nc2ccc3ncc(-c4cnn(CCCN5CCCCC5=O)c4)cc3n2)c1 [Example 0415, 1-(3-(4-(6-((5-Isopropylpyridazin-3-yl)amino)-1,5-naphthyridin-3-yl)-1H-pyrazol-1-yl)propyl)piperidin-2-one] | > 6.00 | > 6.00 | – | –
19 | COCCN(CCCn1cc(-c2cnc3ccc(Nc4cc(C(C)C)cnn4)nc3c2)cn1)CCOC [Example 0660] | > 6.00 | > 6.00 | – | –
20 | Cn1cc(-c2cnc3ccc(Nc4cc(N5CCOCC5)cnn4)nc3c2)cn1 [Example 0554, 7-(1-methyl-1H-pyrazol-4-yl)-N-(5-morpholinopyridazin-3-yl)-1,5-naphthyridine-2-amine] | > 6.00 | > 6.00 | – | –

Row | SMILES | pIC50 [1] | pIC50 ([2]; ERK2 enzyme assay (2)) | pIC50 [2] | pIC50 [1, 3]
21 | CCC(C)c1cnnc(Nc2ccc3ncc(-c4cnn(C)c4)cc3n2)c1 (centres unmarked) [Example 0569] | > 6.00 | > 6.00 | – | –
22 | Cn1cc(-c2cnc3ccc(Nc4cc(C(C)(C)C)on4)nc3c2)cn1 [Example 0776, 5-(tert-Butyl)-N-(7-(1-methyl-1H-pyrazol-4-yl)-1,5-naphthyridin-2-yl)isoxazole-3-amine] | 4.30 to 5.00 | – | – | –
23 | CC(C)c1cnnc(Nc2ccc3ncc(C(=O)N(C)C)cc3n2)c1 [Example 0643] | – | 4.30 to 5.00 | – | –
24 | CC(C)c1nnc(Nc2ccc3nccc(Nc4ccccn4)c3n2)s1 [Example 0005] | – | – | – | > 6.00
25 | Cc1nccn1-c1cnc2ccc(Nc3cc(C(C)C)cnn3)nc2c1 [Example 0513] | – | > 6.00 | – | –
26 | Cn1cc(-c2cnc3ccc(Nc4cc(-c5ccccc5)cnn4)nc3c2)cn1 [Example 0570] | – | > 6.00 | – | –
27 | Cn1cc(-c2cnc3ccc(Nc4cc(-c5ccncc5)cnn4)nc3c2)cn1 [Example 0763] | – | > 6.00 | – | –
28 | Cn1cc(-c2cnc3ccc(Nc4cccc(N)c4)nc3c2)cn1 [Example 0677, N^1-(7-(1-methyl-1H-pyrazol-4-yl)-1,5-naphthyridin-2-yl)benzene-1,3-diamine] | 5.00 to 6.00 | – | – | –
29 | COc1cncc(Nc2cnc3ccc(Nc4cncc(OC)c4)nc3c2)c1 [Example 0155, N^2,N^7-bis(5-methoxypyridin-3-yl)-1,5-naphthyridine-2,7-diamine] | – | – | – | 5.00 to 6.00
30 | CC(C)c1cnnc(Nc2ccc3ncc(C(=O)Nc4ccccc4)cc3n2)c1 [Example 0668] | – | 5.00 to 6.00 | – | –
31 | Cn1cc(-c2cnc3ccc(Nc4nccn4C)nc3c2)cn1 [Example 0516, N-(1-methyl-1H-imidazol-2-yl)-7-(1-methyl-1H-pyrazol-4-yl)-1,5-naphthyridine-2-amine] | 4.30 to 5.00 | – | – | –
32 | CC(C)c1cnnc(Nc2ccc3ncc(-c4cn(C)nc4-c4ccnc(N(C)C)c4)cc3n2)c1 [Example 0753, 7-(3-(2-(Dimethylamino)pyridin-4-yl)-1-methyl-1H-pyrazol-4-yl)-N-(5-isopropylpyridazin-3-yl)-1,5-naphthyridine-2-amine] | > 6.00 | – | – | –
33 | Cc1ccc(S(=O)(=O)NC2CN(c3cnc4ccc(Nc5cc(C(C)C)cnn5)nc4c3)C2)cc1 [Example 0866] | 5.00 to 6.00 | – | – | –
34 | Cc1nnc(Sc2ccc3ncc(-c4cnn(C)c4)cc3n2)s1 [Example 0047, 2-methyl-5-((7-(1-methyl-1H-pyrazol-4-yl)-1,5-naphthyridin-2-yl)thio)-1,3,4-thiadiazole] | – | – | – | > 6.00
35 | CC(C)c1cnnc(Nc2ccc3ncc(-c4cnn(C)c4)c(O)c3n2)c1 [Example 0915, 6-((5-Isopropylpyridazin-3-yl)amino)-3-(1-methyl-1H-pyrazol-4-yl)-1,5-naphthyridine-4-ol] | – | – | 4.30 to 5.00 | –
36 | Cn1cc(-c2cnc3ccc(Nc4ccncn4)nc3c2)cn1 [Example 0775, 7-(1-Methyl-1H-pyrazol-4-yl)-N-(pyrimidin-4-yl)-1,5-naphthyridine-2-amine] | > 6.00 | – | – | –
37 | Cc1ccnc(Nc2ccc3ncc(-c4cnn(C)c4)cc3n2)c1 [Example 0546] | > 6.00 | – | – | –
38 | CC(C)c1cnnc(Nc2ccc3ncc(C(=O)NCc4ccccc4)cc3n2)c1 [Example 0647, N-benzyl-6-((5-isopropylpyridazin-3-yl)amino)-1,5-naphthyridine-3-carboxamide] | – | 5.00 to 6.00 | – | –
39 | Cn1cc(-c2cnc3ccc(Nc4ccccc4N)nc3c2)cn1 [Example 0675, N^1-(7-(1-methyl-1H-pyrazol-4-yl)-1,5-naphthyridin-2-yl)benzene-1,2-diamine] | 4.30 to 5.00 | – | – | –
